This assay concerns the target human TLR2 (Homo sapiens (Human), UniProt O60603). Put plainly: human TLR2-specific NF-κB reporter gene assay (HEK-Blue cells). In kind it is cell-based. Conditions: for absolute magnitude of TLR2-induced NF-κB activation: hTLR2, FIG. 1. The source says: The induction of NF-κB in a TLR2-specific reporter gene assay was quantified using HEK-BLUE™ cells as previously described (Wu, W. et al., J. Med. Chem. 2010, 53, 3198-3213). HEK293 cells stably transfected with either human TLR2 or murine TLR2 and alkaline phosphatase (sAP) were obtained from InvivoGen (San Diego, Calif.), and were maintained in HEK-BLUE™ Selection medium containing zeocin and normocin. Stable expression of secreted alkaline phosphatase (sAP) under control of NF-κB promoters is inducible by TLR2 agonists, and extracellular sAP in the supernatant is proportional to NF-κB induction. HEK-Blue cells were incubated at a density of ˜10^5 cells/mL in a volume of 80 μL/well, in 384-well, flat-bottomed, cell culture-treated microtiter plates until confluency was achieved, and then stimulated with serially-diluted aliquots of compounds for 12 h. sAP was assayed spectrophoto-metrically using an alkaline phosphatase-specific chromogen (present in the HEK-detection medium as supplied by the vendor) at 620 nm. For antagonism assays, HEK-Blue cells were incubated at a density of ˜10^5 cells/mL in a volume of 80 μL/well and stimulated with either PAM2CS (1 μg/mL) or lipoteichoic acid (1 μg/mL) in the presence of graded concentrations of the test compounds as described for TLR7 previously (Shukla, N. M.; et al., Bioorg. Med. Chem. Lett. 2009, 19, 2211-2214; Shukla, N. M. et al., Bioorg. Med. Chem. 2011, 19, 3801-3811).
Background: In a reporter assay the amount or activity of a reporter protein is the signal.

Where [1] appears, read: human TLR2-specific reporter gene assay, ND = no activity detected at 10 μM, read-out: TLR2-Agonistic Activity (EC50 in nM).

SMILES strings stand for the structures. Where two headings read alike, the source gives them in different places. Where only a bound is given, the exact number is not on record here.

Chain of human TLR2 (O60603 21-784): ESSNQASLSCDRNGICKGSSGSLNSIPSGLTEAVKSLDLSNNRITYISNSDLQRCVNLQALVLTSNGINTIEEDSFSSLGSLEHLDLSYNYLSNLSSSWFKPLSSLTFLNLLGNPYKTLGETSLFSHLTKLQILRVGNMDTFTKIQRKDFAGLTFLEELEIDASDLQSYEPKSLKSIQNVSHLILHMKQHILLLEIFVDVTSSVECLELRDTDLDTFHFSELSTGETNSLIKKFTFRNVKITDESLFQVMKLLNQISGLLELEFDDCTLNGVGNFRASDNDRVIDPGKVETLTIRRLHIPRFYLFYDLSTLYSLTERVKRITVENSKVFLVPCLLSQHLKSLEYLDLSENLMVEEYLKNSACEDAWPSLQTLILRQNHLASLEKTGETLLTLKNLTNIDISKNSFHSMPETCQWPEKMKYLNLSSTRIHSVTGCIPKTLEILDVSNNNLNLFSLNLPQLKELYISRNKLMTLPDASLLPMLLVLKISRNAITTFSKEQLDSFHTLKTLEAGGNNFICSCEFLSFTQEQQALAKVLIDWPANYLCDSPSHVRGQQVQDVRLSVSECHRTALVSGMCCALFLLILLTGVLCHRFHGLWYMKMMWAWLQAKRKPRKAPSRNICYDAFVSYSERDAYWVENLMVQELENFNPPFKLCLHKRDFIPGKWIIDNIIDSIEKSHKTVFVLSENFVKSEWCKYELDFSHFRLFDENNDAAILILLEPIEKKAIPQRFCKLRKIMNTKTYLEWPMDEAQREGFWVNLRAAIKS

In general, EC50 refers to the concentration that produces a half-maximal response. For `CCCCCCCCCCC[C@H](CC(=O)OCCSC[C@H](NC(C)=O)C(=O)N[C@@H](CO)C(=O)OC)OC=O` [Compound 66], the EC50 under setting [1] was found to be 0.808 nM.
Still for that read-out and setting: the same measure for `CCCCCCCCCCCCCc1cn(CCSC[C@H](NC(C)=O)C(=O)N[C@@H](CO)C(=O)OC)nn1` [Compound 41, (S)-Methyl 2-((R)-2-acetamido-3-((2-(4-tridecyl-1H-1,2,3-triazol-1-yl)ethyl)thio)propanamido)-3-hydroxypropanoate]: 260 nM.
Still for that read-out and setting: the same measure for `CCCCCCCCCCC[C@@H](O)CC(=O)OCCSC[C@H](NC(C)=O)C(=O)N[C@@H](CO)C(=O)OC` [Compound 65]: 1.13 nM.
On the same count and under the same terms, with `CCCCCCCCCCCCCCCCOC(=O)NCCSC[C@H](NC(C)=O)C(=O)N[C@@H](CO)C(=O)OC` [Compound 48, (2S,5R)-Methyl 5-acetamido-2-(hydroxymethyl)-4,11-dioxo-12-oxa-7-thia-3,10-diazaoctacosan-1-oate] the figure was 0.0615 nM; with `CCCCCCCCCCCCCCCC(=O)OCCSC[C@H](NC(=O)CCCCCCC)C(=O)N[C@@H](CO)C(=O)OC` [Compound 11f, 2-(((R)-3-(((S)-3-hydroxy-1-methoxy-1-oxopropan-2-yl)amino)-2-octanamido-3-oxopropyl)thio)ethyl palmitate], 3.8 nM; with `CCCCCCCCCCC[C@H](CC(=O)OCCSC[C@H](NC(C)=O)C(=O)N[C@@H](CO)C(=O)OC)OC(C)=O` [Compound 82], 0.182 nM.
For the molecule `CCCCCCCCCCCCCCCC(=O)OCCSC[C@H](NS(=O)(=O)c1ccc(C)cc1)C(=O)N[C@@H](CO)C(=O)OC` [Compound 11l, 2-(((R)-3-(((S)-3-hydroxy-1-methoxy-1-oxopropan-2-yl)amino)-2-(4-methylphenylsulfonamido)-3-oxopropyl)thio)ethyl palmitate], the “hTLR2-agonistic activity in words” value (hTLR2 reporter gene assay) was “inactive”. Further, the EC50 under setting [1] was > 10000 nM.
For `CCCCCCCCCCCCCCCCN[C@@H](CSCCOC(=O)CCCCCCCCCCCCCCC)C(=O)N[C@@H](CO)C(=O)OC` [Compound 11c, 2-(((R)-2-(hexadecylamino)-3-(((S)-3-hydroxy-1-methoxy-1-oxopropan-2-yl)amino)-3-oxopropyl)thio)ethyl palmitate], the “hTLR2-agonistic activity in words” value (hTLR2 reporter gene assay) was “inactive”. Besides, the EC50 under setting [1] was > 10000 nM.
The matching figures for `CCCCCCCCCCCCCCCC(=O)OCCSC[C@H](NS(=O)(=O)C(F)(F)F)C(=O)N[C@@H](CO)C(=O)OC` [Compound 11k, 2-(((R)-3-(((S)-3-hydroxy-1-methoxy-1-oxopropan-2-yl)amino)-3-oxo-2-(trifluoromethyl-sulfonamido)propyl)thio)ethyl palmitate]: “inactive” and > 10000 nM.
Turning to `COC(=O)[C@H](CO)NC(=O)[C@@H](N)CSCCOC(=O)c1cccc(-c2ccccc2)c1` [Compound 6g, 2-(((R)-2-amino-3-(((S)-3-hydroxy-1-methoxy-1-oxopropan-2-yl)amino)-3-oxopropyl)thio)ethyl[1,1′-biphenyl]-3-carboxylate], where the note is “hTLR2 reporter gene assay”, the “hTLR2-agonistic activity in words” value is listed as “complete absence of activity”. In addition, the EC50 under setting [1] was > 10000 nM.
As for `CCCCCCCCCCC[C@H](CC(=O)OCCSC[C@H](NC(C)=O)C(=O)N[C@@H](CO)C(=O)OC)OC(=O)CCCCCCC` [Compound 85], the EC50 under setting [1] was 3.08 nM.
Take `CCCCCCCCCCCCCCNCC(=O)OCCSC[C@H](N)C(=O)N[C@@H](CO)C(=O)OC` [Compound 10b, (S)-methyl 2-((R)-2-amino-3-((2-(2-(tetradecylamino)acetoxy)ethyl)thio)propanamido)-3-hydroxypropanoate]: the “hTLR2-agonistic activity in words” value (hTLR2 reporter gene assay) was “completely inactive”. Further, under setting [1], the EC50 is > 10000 nM.
`CCCCCCCCCCCCCC(=O)O[C@H](CCCCCCCCCCC)CC(=O)OCCSC[C@H](NC(C)=O)C(=O)N[C@@H](CO)C(=O)OC` [Compound 88]: the EC50 under setting [1] amounted to 9.52 nM.
The same measure, in the same setting: the same measure for `CCCCCCCCCCCCCCCC(=O)O[C@H](CCCCCCCCCCC)CC(=O)OCCSC[C@H](NC(C)=O)C(=O)N[C@@H](CO)C(=O)OC` [Compound 89]: 4.78 nM.
`CCCCCCCCCCCCCCCC(=O)OCCSC[C@H](NC(=O)C(F)(F)F)C(=O)N[C@@H](CO)C(=O)OC` [Compound 11h, 2-(((R)-3-(((S)-3-hydroxy-1-methoxy-1-oxopropan-2-yl)amino)-3-oxo-2-(2,2,2-trifluoro-acetamido)propyl)thio)ethyl palmitate]: the “absolute magnitude of TLR2-induced NF-κB activation” value is recorded as “low magnitude”. The EC50 (hTLR2 reporter gene assay, read-out: EC50 in engaging hTLR2) stood at 4.5 nM.
Take `CCCCCCCCCCC[C@H](CC(=O)OCCSC[C@H](NC(C)=O)C(=O)N[C@@H](CO)C(=O)OC)OC(=O)CCCCCCCCC` [Compound 86]: the half-maximal effective concentration (EC50) under setting [1] is 12.9 nM.
On the same count and under the same terms, with `CCCCCCCCCCC[C@H](CC(=O)OCCSC[C@H](NC(C)=O)C(=O)N[C@@H](CO)C(=O)OC)OC(=O)CCC` [Compound 83] the figure was 0.345 nM.
Regarding `CCCCCCCCCCCCCCCC(=O)OCCSC[C@H](NC(=O)C(Cl)(Cl)Cl)C(=O)N[C@@H](CO)C(=O)OC` [Compound 11i, 2-(((R)-3-(((S)-3-hydroxy-1-methoxy-1-oxopropan-2-yl)amino)-3-oxo-2-(2,2,2-trichloroacetamido)propyl)thio)ethyl palmitate], the “hTLR2-agonistic activity in words” value (hTLR2 reporter gene assay) was “inactive”. Besides, the EC50 under setting [1] was > 10000 nM.
Turning to `CCCC(=O)OCCSC[C@H](N)C(=O)N[C@@H](CO)C(=O)OC` [Compound 6a, 2-(((R)-2-Amino-3-(((S)-3-Hydroxy-1-Methoxy-1-oxopropan-2-yl)amino)-3-oxopropyl)thio)ethyl butyrate], under setting [1], the 50% effective concentration (EC50) is > 10000 nM.
In the case of `CCCCCCCCCCCCCCCC(=O)OCCSC[C@H](NC(C)=O)C(=O)N[C@@H](CO)C(=O)OC` [Compound 11d, 2-(((R)-2-acetamido-3-(((S)-3-hydroxy-1-methoxy-1-oxopropan-2-yl)amino)-3-oxopropyl)thio)ethyl palmitate], the “absolute magnitude of TLR2-induced NF-κB activation” value is given as “far greater”. The EC50 under setting [1] is 1.01 nM.
`CCCCCCCCCCCCCCCCNC(=O)OCCSC[C@H](NC(C)=O)C(=O)N[C@@H](CO)C(=O)OC` [Compound 45, (2S,5R)-Methyl 5-acetamido-2-(hydroxymethyl)-4,11-dioxo-10-oxa-7-thia-3,12-diazaoctacosan-1-oate]: the EC50 under setting [1] came to 0.323 nM.
In the case of `CCCCCCCCCCCCCCCC(=O)OCCSC[C@H](NCC)C(=O)N[C@@H](CO)C(=O)OC` [Compound 11a, 2-(((R)-2-(ethylamino)-3-(((S)-3-hydroxy-1-methoxy-1-oxopropan-2-yl)amino)-3-oxopropyl)thio)ethyl palmitate], for the setting “hTLR2 reporter gene assay”, the “hTLR2-agonistic activity in words” value is “inactive”. Besides, the EC50 under setting [1] was > 10000 nM.
`CCCCCCCCCCCCCCCC(=O)OCCSC[C@H](N)C(=O)N[C@@H](COC(=O)CCC)C(=O)OC` [Compound 14b, 2-(((R)-2-amino-3-(((S)-3-(butyryloxy)-1-methoxy-1-oxopropan-2-yl)amino)-3-oxopropyl)thio)ethyl palmitate]: the EC50 under setting [1] was found to be 5.47 nM.
As to `CCCCCCCCCCC[C@H](CC(=O)OCCSC[C@H](NC(C)=O)C(=O)N[C@@H](CO)C(=O)OC)OC(=O)CCCCC` [Compound 84], the concentration giving a half-maximal response (EC50) under setting [1] came to 1.5 nM.
Regarding `CCCCCCCCCCCCCCCC(=O)OCCSC[C@H](NCCCCCCCC)C(=O)N[C@@H](CO)C(=O)OC` [Compound 11b, 2-(((R)-3-(((S)-3-hydroxy-1-methoxy-1-oxopropan-2-yl)amino)-2-(octylamino)-3-oxopropyl)thio)ethyl palmitate], the “hTLR2-agonistic activity in words” value (hTLR2 reporter gene assay) is “inactive”. Further, under setting [1], the EC50 is > 10000 nM.
As to `COC(=O)[C@H](CO)NC(=O)[C@@H](N)CSCCOC(=O)c1ccc(-c2ccccc2)cc1` [Compound 6f, 2-(((R)-2-amino-3-(((S)-3-hydroxy-1-methoxy-1-oxopropan-2-yl)amino)-3-oxopropyl)thio)ethyl[1,1′-biphenyl]-4-carboxylate], for the setting “hTLR2 reporter gene assay”, the “hTLR2-agonistic activity in words” value was “complete absence of activity”. The EC50 under setting [1] was > 10000 nM.
Take `CCCCCCCCCCCC(=O)O[C@H](CCCCCCCCCCC)CC(=O)OCCSC[C@H](NC(C)=O)C(=O)N[C@@H](CO)C(=O)OC` [Compound 87]: the EC50 under setting [1] worked out at 20.7 nM.
For `COC(=O)[C@H](CO)NC(=O)[C@@H](N)CSCCOC(=O)c1ccc(-c2ccc(-c3ccccc3)cc2)cc1` [Compound 6h], the “hTLR2-agonistic activity in words” value (hTLR2 reporter gene assay) was “complete absence of activity”.
As to `CCCCCCCCCCCCCCCC(=O)OCCSC[C@H](NC(C)=O)C(=O)N[C@@H](COC(=O)c1cccnc1)C(=O)OC` [Compound 28, (S)-2-((R)-2-Acetamido-3-((2-(palmitoyloxy)ethyl)thio)propanamido)-3-methoxy-3-oxopropyl nicotinate], the EC50 under setting [1] is 1.27 nM.
Take `CCCCCCCCCCCCCCCC(=O)OCCCSC[C@H](NC(C)=O)C(=O)N[C@@H](CO)C(=O)OC` [Compound 16, 3-(((R)-2-acetamido-3-(((S)-3-hydroxy-1-methoxy-1-oxopropan-2-yl)amino)-3-oxopropyl)thio)propyl palmitate]: the “hTLR2-agonistic activity in words” value (hTLR2 reporter gene assay) was “active, albeit much weaker in potency than 11d”. Moreover, the EC50 under setting [1] was determined as 5.52 nM.
